From US9663464B2, “Carbazole derivatives acting on 5-HT7 receptor” (KOREA INSTITUTE OF SCIENCE AND TECHNOLOGY, priority 2015, dated 2017)
Where a name gives a salt, the structure may show the parent alone.

Key:
[1] = molecular target: T1, human gene recombinant 5-HT7 receptor expressed in CHO cells (Homo sapiens, UniProt P34969); test: Binding affinity for the 5-HT7 serotonin receptor ([3H]LSD radioligand)
T1 construct: expressed in transfected cells; host or cells: CHO cells (membrane preparation)
T1 sequence (P34969 whole entry): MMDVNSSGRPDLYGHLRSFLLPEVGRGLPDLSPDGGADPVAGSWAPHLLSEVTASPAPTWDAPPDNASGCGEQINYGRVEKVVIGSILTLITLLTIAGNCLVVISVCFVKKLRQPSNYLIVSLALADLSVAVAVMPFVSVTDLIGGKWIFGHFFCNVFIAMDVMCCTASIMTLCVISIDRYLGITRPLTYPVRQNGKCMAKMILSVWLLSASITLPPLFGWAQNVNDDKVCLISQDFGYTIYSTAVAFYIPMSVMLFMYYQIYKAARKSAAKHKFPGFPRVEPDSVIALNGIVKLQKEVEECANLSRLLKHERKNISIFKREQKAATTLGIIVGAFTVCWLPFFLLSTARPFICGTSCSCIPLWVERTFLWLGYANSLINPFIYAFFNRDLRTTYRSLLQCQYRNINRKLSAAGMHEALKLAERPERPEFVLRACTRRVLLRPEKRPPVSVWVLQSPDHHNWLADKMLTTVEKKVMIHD
Protocol: In this example, the human gene recombinant 5-HT7 receptor expressed in CHO cells was used. 1 nM [^3H]LSD, 5-HT7 receptor membrane (15 μg/well), a test drug, 10 mM MgCl2, 50 mM Tris-HCl buffer (pH 7.4) containing 0.1 mM EDTA, etc. were added to a vessel until the final volume reached 0.25 ml. The test drug was used at various concentrations. The mixture was cultured at 25° C. for 90 min. The culture was rapidly filtered through a Whatman GF/C glass fiber filter, which had been previously wetted with 0.3% polyethyleneimine using a Brandel harvester, to quench the reaction. The reaction mixture was washed with cold 50 mM Tris-HCl buffer. The filter was covered with MeltiLex, sealed in a sample bag, and dried in an oven. Counting was performed using MicroBeta (Wallac) and nonspecific binding was measured in the presence of […]. The K value of the test drug was obtained from nonlinear regression analysis (GraphPad Prism Program, San Diego, USA) of isotherms obtained by repeatedly performing the experiment on the drug at 10-11 stage concentrations in two test tubes (each twice).
The % inhibition values of the inventive compounds having different Y structures at a concentration of 10 μM against the 5-HT7 serotonin receptor were measured. Further, the binding affinity (Ki) values of the inventive compounds having different Y structures at a concentration of 10 μM for the 5-HT7 serotonin receptor were measured.

5-HT2C = molecular target: T2, 5-HT2C (Homo sapiens, UniProt P28335); test: 5-HT2C receptor inhibition/binding (Tables 1-3)
T2 sequence (P28335 33-458): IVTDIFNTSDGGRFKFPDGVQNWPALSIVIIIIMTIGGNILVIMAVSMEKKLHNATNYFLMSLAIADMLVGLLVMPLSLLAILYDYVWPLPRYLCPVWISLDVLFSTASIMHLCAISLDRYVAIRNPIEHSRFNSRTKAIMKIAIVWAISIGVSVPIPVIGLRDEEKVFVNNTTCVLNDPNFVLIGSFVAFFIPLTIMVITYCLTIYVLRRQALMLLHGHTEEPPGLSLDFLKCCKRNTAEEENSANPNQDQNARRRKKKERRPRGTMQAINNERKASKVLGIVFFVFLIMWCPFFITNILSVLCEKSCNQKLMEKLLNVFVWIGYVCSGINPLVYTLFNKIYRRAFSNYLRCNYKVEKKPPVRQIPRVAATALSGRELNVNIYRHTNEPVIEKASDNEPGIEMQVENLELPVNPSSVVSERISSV

5-HT6 = 5-HT6 (Homo sapiens, UniProt P50406); test: 5-HT6 receptor inhibition/binding (Tables 2-3)
5-HT6, sequence (P50406 whole entry, species assumed): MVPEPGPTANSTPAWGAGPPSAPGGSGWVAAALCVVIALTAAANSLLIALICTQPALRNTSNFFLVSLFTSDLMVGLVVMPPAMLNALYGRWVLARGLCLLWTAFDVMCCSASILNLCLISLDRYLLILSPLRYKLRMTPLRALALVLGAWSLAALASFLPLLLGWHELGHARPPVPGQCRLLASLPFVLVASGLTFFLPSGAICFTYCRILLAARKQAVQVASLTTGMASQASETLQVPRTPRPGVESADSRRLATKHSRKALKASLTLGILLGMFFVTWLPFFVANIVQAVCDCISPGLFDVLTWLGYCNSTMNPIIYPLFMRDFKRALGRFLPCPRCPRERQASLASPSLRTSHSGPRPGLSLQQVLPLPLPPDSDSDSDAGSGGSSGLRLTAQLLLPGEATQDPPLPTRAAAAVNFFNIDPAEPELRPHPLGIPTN

Rats = test: Antagonism against migraine: leakage of fluorescent protein (FITC-BSA) from meningeal vessels; assay type: in vivo; settings: for protein leakage vs reference value: 5 mg/kg to 20 mg/kg
Protocol: It is known that inflammatory proteins leaked from meningeal vessels by 5-HT are implicated in causing migraine. The amount of the proteins leaked in the presence of the compound of Example 2.10 was measured and the preventive effect of the compound on migraine was assessed by a partial modification of the method described in the literature [Rachel A. Spokes, Vicki C. Middlefell, European Journal of Pharmacology (1995) 281, 75-79]. SB-269970, which is known as a 5-HT7 receptor antagonizing compound (J. Med. Chem. (2000) 43, 342-345), was used as a comparative compound. A negative control free of […] was prepared. The fluorescence intensity of the negative control was defined as a reference value. As a positive control, physiological saline was added instead of the compound of Example 2-10.
Rats (350-450 g) were administered urethane (1.5 g/kg) intraperitoneally. 50 mg/kg of a fluorescent protein (FITC-BSA) was administered intravenously through a cannula introduced into the saphenous vein, and 1 μM […] was administered intravenously. SB-269970 and the compound of Example 2.10 were administered intraperitoneally. The cerebral lobes were separated and the meninges were drawn from each rat. The meninges were allowed to stand at 37° C. for 16 h in the presence of physiological saline at pH 11, followed by centrifugation. The supernatant was plated on plates. The fluorescence intensity was measured using a fluorescence leader (excitation wavelength 485 nm, […] wavelength 530 nm) and the meninges were weighed. The fluorescence intensity per mg of the meningeal proteins was calculated.

5-HT1A = molecular target: T3, 5-HT1A (Homo sapiens, UniProt P08908); test: 5-HT1A receptor inhibition (Table 3); assay type: binding
T3 sequence (P08908 1-422): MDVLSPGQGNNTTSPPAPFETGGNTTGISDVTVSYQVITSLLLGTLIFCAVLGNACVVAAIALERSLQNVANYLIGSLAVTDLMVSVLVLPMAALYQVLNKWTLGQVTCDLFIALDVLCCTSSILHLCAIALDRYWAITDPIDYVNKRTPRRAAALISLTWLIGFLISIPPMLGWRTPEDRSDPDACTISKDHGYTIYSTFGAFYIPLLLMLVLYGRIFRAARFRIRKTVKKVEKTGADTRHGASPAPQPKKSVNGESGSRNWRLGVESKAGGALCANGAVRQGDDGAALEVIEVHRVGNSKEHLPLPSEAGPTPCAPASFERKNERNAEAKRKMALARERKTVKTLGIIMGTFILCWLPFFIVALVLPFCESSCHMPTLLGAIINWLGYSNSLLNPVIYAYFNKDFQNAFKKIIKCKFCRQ

5-HT1E = 5-HT1E (Homo sapiens, UniProt P28566); test: 5-HT1E receptor inhibition (Table 1); assay type: binding
5-HT1E, sequence (P28566 whole entry, species assumed): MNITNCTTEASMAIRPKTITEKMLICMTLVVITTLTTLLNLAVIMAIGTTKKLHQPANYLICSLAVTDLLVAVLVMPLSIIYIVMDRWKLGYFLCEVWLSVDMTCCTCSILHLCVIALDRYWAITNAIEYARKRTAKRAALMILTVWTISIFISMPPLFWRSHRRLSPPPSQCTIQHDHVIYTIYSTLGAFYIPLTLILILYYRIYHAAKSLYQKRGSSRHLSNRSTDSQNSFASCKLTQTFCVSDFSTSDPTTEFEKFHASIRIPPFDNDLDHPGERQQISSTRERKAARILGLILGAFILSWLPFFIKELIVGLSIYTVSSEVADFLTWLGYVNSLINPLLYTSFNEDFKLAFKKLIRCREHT

Ki [1] [nM]	inhibition at 10 µM [1] [%]	inhibition at 10 µM (5-HT2C) [%]	inhibition at 10 µM (5-HT6) [%]	inhibition at 10 µM (5-HT1A) [%]	Structure (SMILES)	Ki (5-HT2C) [nM]	Ki (5-HT6) [nM]	protein leakage vs reference value (Rats)	amount of the proteins leaked (meningeal fluorescence intensity) (Rats; intraperitoneal, 10 mg/kg)	amount of the proteins leaked (meningeal fluorescence intensity) vs reference value (Rats; intraperitoneal, 30 mg/kg)	inhibition at 10 µM (5-HT1E) [%]	amount of the proteins leaked (meningeal fluorescence intensity) vs reference value (Rats; intraperitoneal, 3 mg/kg)
55	95.8		77.8	103	Oc1ccccc1N1CCN(CCCCn2c3ccccc3c3ccccc32)CC1 [Example 2.55, 2-(4-(4-(9H-carbazol-9-yl)butyl)piperazin-1-yl)phenol]			suppressed to a level close to the reference value				
					CC1CCN(CC[C@H]2CCCN2S(=O)(=O)c2cccc(O)c2)CC1 [SB-269970, reference compound]				reduced the amount of the proteins leaked	not lowered down to the reference value		
	94.2	78.5			CC1CCN(CCCCCC(=O)n2c3ccccc3c3ccccc32)CC1 [Example 2.4, 1-(9H-carbazol-9-yl)-6-(4-methylpiperidin-1-yl)hexan-1-one]	878		suppressed to a level close to the reference value			-11.6	
38	100	73.5	85.3	94.2	O=C(CCCCCN1CCN(c2ccccc2O)CC1)n1c2ccccc2c2ccccc21 [Example 2.15, 1-(9H-carbazol-9-yl)-6-(4-(2-hydroxyphenyl)piperazin-1-yl)hexan-1-one]			suppressed to a level close to the reference value				
252	103	70.4	91.9		O=C(CCCCCN1CCC(Cc2ccccc2)CC1)n1c2ccccc2c2ccccc21 [Example 2.10, 6-(4-Benzylpiperidin-1-yl)-1-(9H-carbazol-9-yl)hexan-1-one hydrochloride]	683	354					effectively suppressed to a level close to the reference value
73	94.1	63.7	81.3	80.5	O=C(CCCCCN1CCN(c2noc3ccccc23)CC1)n1c2ccccc2c2ccccc21 [Example 2.14, 6-(4-Benzo[d]isoxazol-3-yl)piperazin-1-yl)-1-(9H-carbazol-9-yl)hexan-1-one hydrochloride]			suppressed to a level close to the reference value				

Structure (SMILES)	Ki [1] [nM]	inhibition at 10 µM [1] [%]	inhibition at 10 µM (5-HT2C) [%]	inhibition at 10 µM (5-HT6) [%]	inhibition at 10 µM (5-HT1A) [%]	Ki (5-HT2C) [nM]	Ki (5-HT6) [nM]	protein leakage vs reference value (Rats)	amount of the proteins leaked (meningeal fluorescence intensity) (Rats; intraperitoneal, 10 mg/kg)	amount of the proteins leaked (meningeal fluorescence intensity) vs reference value (Rats; intraperitoneal, 30 mg/kg)	inhibition at 10 µM (5-HT1E) [%]	amount of the proteins leaked (meningeal fluorescence intensity) vs reference value (Rats; intraperitoneal, 3 mg/kg)
O=C(CCCCCN1CCC(c2ccccc2)CC1)n1c2ccccc2c2ccccc21 [Example 2.9, 1-(9H-carbazol-9-yl)-6-(4-phenylpiperidin-1-yl)hexan-1-one hydrochloride]	157	99.8	55.3	92.2		758	373	suppressed to a level close to the reference value				
COc1ccccc1N1CCN(CCCCC(=O)n2c3ccccc3c3ccccc32)CC1 [Example 2.31, 1-(9H-carbazol-9-yl)-5-(4-(2-methoxyphenyl)piperazin-1-yl)pentan-1-one hydrochloride]	30	99.6	62.6	44.4	103			suppressed to a level close to the reference value				
O=C(CCCCCN1CCCC1)n1c2ccccc2c2ccccc21 [Example 2.3, 1-(9H-carbazol-9-yl)-6-(pyrrolidin-1-yl)hexan-1-one hydrochloride]	1050	74	76.7			764					13.9	
